Drawing on PubChem BioAssay AID1963981 (Molecular Pharmacology Branch, DTP, NCI, 2024), this text covers viability, T/C and IC50 for 15 molecules.

The assay concerns 354836-022-R-J1-PDC multicell spheroid viability. Description: Anticancer human tumor 354836-022-R-J1-PDC patient-derived head and neck squamous cell carcinoma cell line growth inhibition [PI3K]. The conditions noted are these: for viability, T/C: stronger effect = lower value. The text has this:
Combinatorial screen of targeted agents with the PI3K inhibitors inavolisib, alpelisib, duvelisib, and copanlisib in multi-cell type tumor spheroids
A high-throughput screen of multi-cell type tumor spheroids was designed to identify active combinations of targeted small molecules and PI3K pathway inhibitors. Complex spheroids include a stromal component modeled by human endothelial cells (HUVEC) and fibroblasts modeled by human mesenchymal stem cells (MSCs). The concentration ranges selected for each drug and investigational agent were based upon clinically achievable concentrations if the clinical Cmax of the agent was known.
Compounds. The drugs and investigational agents: inavolisib (NSC800729), alpelisib (NSC765974), duvelisib (NSC772469), copanlisib (NSC816437), ipatasertib (NSC767898), afuresertib (NSC778305), talazoparib (NSC767125), sapanisertib (NSC764658), selumetinib (NSC741078), tovorafenib (DAY101, NSC766906), vemurafenib (NSC761431), ravoxertinib (NSC781343), sotorasib (NSC818433), MRTX1133 (NSC 836407), abemaciclib (NSC 768073), palbociclib (NSC758247), venetoclax (NSC 766270), SY5609 (NSC837396), enzalutamide (NSC755605), and darolutamide (NSC825331), were obtained from the National Cancer Institute (NCI) Developmental Therapeutics Program Chemical Repository. The FDA-approved anticancer drug set is available from the NCI Developmental Therapeutics Program. […] The stock solutions were prepared in dimethyl sulfoxide (DMSO, Sigma-Aldrich, St. Louis, MO, cat. D2650) at 800-fold the tested concentration and stored at -70 degrees C prior to their use. All drugs and investigational agents were tested over a range starting from a high concentration at or near the clinical Cmax and decreasing in half-log increments. If the clinical Cmax for an agent had not been determined, the highest concentration tested was 10 microM.
Cell Culture. All cells were maintained in an incubator at 37 degrees C and 5% CO2 with 95% humidity. The PDC lines were cultured according to standard operating procedures established by the NCI PDMR (https://pdmr.cancer.gov/sops/default.htm). All PDCs were thawed and cultured in Matrigel-coated flasks prepared with a working solution of 1X Ham's F-12 nutrient mix, without supplementation (Invitrogen, Waltham, MA, cat. 11765054), 100 U/mL penicillin-streptomycin (Invitrogen, cat. 15140122), and 2.5% Matrigel (Corning Inc., Corning, NY, cat. 354248) for the first three passages. The 354836-022-R-J1-PDC, 475296-252-R-J1-PDC, and 997726-040-R-J2-PDC lines were cultured in 6A media, which includes advanced DMEM/F-12 (Thermo Fisher Scientific, cat. 12634028), 10 mM HEPES (Thermo Fisher Scientific, cat. 15630080), 1X GlutaMAX supplement (Thermo Fisher Scientific, cat. 35050061), 0.1 mg/mL primocin (InvivoGen, San Diego, CA, cat. ant-pm-2), 10% defined fetal bovine serum, heat inactivated (HyClone Laboratories Inc., Logan, UT, cat. SH30070.03HI), 50% L-WRN conditioned media (ATCC, cat. CRL-3276), 1.25 mM N-Acetyl-L-cysteine (Sigma-Aldrich, cat. A9165), 10 mM nicotinamide (Sigma-Aldrich, cat. N0636), 1X B-27 supplement (Thermo Fisher Scientific, cat. 17504044), 1X N-2 supplement (Thermo Fisher Scientific, cat. 17502048), and 10 microM Y-27632 dihydrochloride (Tocris Bioscience, Bristol, United Kingdom, cat. 1254). The 624824-186-R-J2-PDC line was cultured in 6C/Colon 1B media, which includes all 6A media components plus 50 ng/mL human EGF recombinant protein (Thermo Fisher Scientific, cat. PHG0311). […]

[1] abbreviates: compound alone, run of 06/12/2023.
Setting [2] is: compound alone, run of 06/13/2023.

“And” between values parts separate entries of the source, which are not always exact repeats. Equal values may be shown once.
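Also: spheroids exposed to agents for seven days before the viability read.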

In the case of `CC(=O)c1c(C)c2cnc(Nc3ccc(N4CCNCC4)cn3)nc2n(C2CCCC2)c1=O`, the viability, T/C reads like this: (compound 0.000316 µM) 105% (2×) and 101% and 106%; (compound 0.001 µM) 104% [middle of 4 runs]; (compound 0.00316 µM) 105% [middle of 4 runs]; (compound 0.01 µM) 102% [middle of 4 runs]; (compound 0.0316 µM) 103% [middle of 4 runs]; (compound 0.1 µM) 104% [middle of 4 runs]. Further, for the setting “curve of compound”, the IC50 is > 100 nM.

As to `CC(C)NCC(C(=O)N1CCN(c2ncnc3c2C(C)CC3O)CC1)c1ccc(Cl)cc1` (stereo not given), the viability, T/C (compound 0.0316 µM) is 96.5% [middle of 4 runs]; the viability, T/C (compound 0.1 µM) was 71% [middle of 4 runs]; the viability, T/C (compound 0.316 µM) was 54.1% [middle of 4 runs]; the viability, T/C (compound 1 µM) was 24.7% [middle of 4 runs]; the viability, T/C (compound 3.16 µM) is 18% [middle of 4 runs]; the viability, T/C (compound 10 µM) was 14.2% [middle of 4 runs]. Also, for the setting “curve of compound”, the IC50 is 319 nM [middle of 4 runs].

For `CC(C)n1nc(-c2ccc3oc(N)nc3c2)c2c(N)ncnc21`, the viability, T/C runs as follows: (compound 0.000316 µM) 92.8% [middle of 4 runs]; (compound 0.001 µM) 84.9% [middle of 4 runs]; (compound 0.00316 µM) 78.9% [middle of 4 runs]; (compound 0.01 µM) 52% [middle of 4 runs]; (compound 0.0316 µM) 28.9% [middle of 4 runs]; (compound 0.1 µM) 11.4% [middle of 4 runs]. For the same molecule, the IC50 (curve of compound) was 9.59 nM and 12 nM and 11.8 nM.

For `CC(Cn1ccc(-c2ccc(C#N)c(Cl)c2)n1)NC(=O)c1cc(C(C)O)[nH]n1` (stereo not given), the viability, T/C is, setting by setting: (compound 0.0316 µM) 108% [middle of 4 runs]; (compound 0.1 µM) 95.5% [middle of 4 runs]; (compound 0.316 µM) 112% [middle of 4 runs]; (compound 1 µM) 93.7% [middle of 4 runs]; (compound 3.16 µM) 99.2% [middle of 4 runs]; (compound 10 µM) 77.8% [middle of 4 runs]. Also, the IC50 (curve of compound) is > 10000 nM.

For `CC(Nc1ccc2c(c1)OCCn1cc(N3C(=O)OCC3C(F)F)nc1-2)C(N)=O` (stereo not given), the viability, T/C reads like this: (compound 0.00316 µM) 99.7% [middle of 8 runs]; (compound 0.01 µM) 96.8% [middle of 8 runs]; (compound 0.0316 µM) 99.1% [middle of 8 runs]; (compound 0.1 µM) 87.8% [middle of 7 runs]; (compound 0.316 µM) 76.5% [middle of 8 runs]; (compound 1 µM) 53.6% [middle of 8 runs]. For the same molecule, the IC50 under setting [1] is > 1000 nM.

With `CC(Nc1ncnc2nc[nH]c12)c1cc2cccc(Cl)c2c(=O)n1-c1ccccc1` (stereo not given), the viability, T/C was 101% [middle of 8 runs] (compound 0.0316 µM); 104% [middle of 8 runs] (compound 0.1 µM); 99.3% [middle of 8 runs] (compound 0.316 µM); 97.6% [middle of 8 runs] (compound 1 µM); 92.8% [middle of 8 runs] (compound 3.16 µM); 94.6% [middle of 8 runs] (compound 10 µM). Under setting [2], the IC50 was > 10000 nM.

With `CC1(C)CCC(CN2CCN(c3ccc(C(=O)NS(=O)(=O)c4ccc(NCC5CCOCC5)c([N+](=O)[O-])c4)c(Oc4cnc5[nH]ccc5c4)c3)CC2)=C(c2ccc(Cl)cc2)C1`, the viability, T/C was 104% [middle of 4 runs] (compound 0.0316 µM), 102% [middle of 4 runs] (compound 0.316 µM), 82.2% [middle of 4 runs] (compound 1 µM) and 72.4% [middle of 4 runs] (compound 3.16 µM).

In the case of `CCN1CCN(Cc2ccc(Nc3ncc(F)c(-c4cc(F)c5nc(C)n(C(C)C)c5c4)n3)nc2)CC1`, the viability, T/C reads like this: (compound 0.00316 µM) 111% [middle of 4 runs]; (compound 0.01 µM) 94.4% [middle of 4 runs]; (compound 0.0316 µM) 98.2% [middle of 4 runs]; (compound 0.1 µM) 90% and 99.5% and 87.3% (2×); (compound 0.316 µM) 94% [middle of 4 runs]. The IC50 (curve of compound) was > 1000 nM and 830 nM.

Consider `CNC(=O)c1ccc(N2C(=S)N(c3ccc(C#N)c(C(F)(F)F)c3)C(=O)C2(C)C)cc1F`, for which the viability, T/C (compound 0.0316 µM) is 106% [middle of 4 runs]; the viability, T/C (compound 0.1 µM) is 102% [middle of 4 runs]; the viability, T/C (compound 0.316 µM) is 96.3% and 107% (2×) and 116%; the viability, T/C (compound 1 µM) is 100% [middle of 4 runs]; the viability, T/C (compound 3.16 µM) is 99.1% and 122% and 104% (2×); the viability, T/C (compound 10 µM) is 96.7% [middle of 4 runs]. Moreover, the IC50 (curve of compound) was > 10000 nM.

`COc1c(OCCCN2CCOCC2)ccc2c3n(c(=NC(=O)c4cnc(N)nc4)nc12)CCN3`: the viability, T/C was 106% [middle of 8 runs] (compound 0.00316 µM); 97.6% [middle of 8 runs] (compound 0.01 µM); 82.5% [middle of 8 runs] (compound 0.0316 µM); 50.2% [middle of 8 runs] (compound 0.1 µM); 11.2% [middle of 8 runs] (compound 0.316 µM); 1.63% [middle of 8 runs] (compound 1 µM). In addition, the IC50 under setting [2] is 91.2 nM [middle of 8 runs].

Consider `C[C@@H](NC(=O)c1ncnc(N)c1Cl)c1ncc(C(=O)Nc2cc(C(F)(F)F)c(Cl)cn2)s1`, for which the viability, T/C by setting is: (compound 0.0316 µM) 105% [middle of 4 runs]; (compound 0.1 µM) 99.9% [middle of 4 runs]; (compound 0.316 µM) 99.3% [middle of 4 runs]; (compound 1 µM) 98.5% [middle of 4 runs]; (compound 3.16 µM) 105% [middle of 4 runs]; (compound 10 µM) 70.9% [middle of 4 runs]. Also, where the note is “curve of compound”, the IC50 was > 10000 nM.

As for `Cc1nc(NC(=O)N2CCCC2C(N)=O)sc1-c1ccnc(C(C)(C)C(F)(F)F)c1` (stereo not given), the viability, T/C runs as follows: (compound 0.0316 µM) 103% [middle of 8 runs]; (compound 0.1 µM) 100% [middle of 8 runs]; (compound 1 µM) 78.3% [middle of 8 runs]; (compound 3.16 µM) 59.7% [middle of 8 runs]; (compound 10 µM) 30.9% [middle of 8 runs]. Moreover, under setting [1], the IC50 was 4.49 µM [middle of 8 runs].

For the molecule `Cn1cnc2c(F)c(Nc3ccc(Br)cc3Cl)c(C(=O)NOCCO)cc21`, the viability, T/C is 90% [middle of 4 runs] (compound 0.00949 µM); 85.5% [middle of 4 runs] (compound 0.03 µM); 91.4% [middle of 4 runs] (compound 0.0949 µM); 74.8% [middle of 4 runs] (compound 0.3 µM); 80.2% [middle of 4 runs] (compound 0.949 µM); 58.4% [middle of 4 runs] (compound 3 µM). For the setting “curve of compound”, the IC50 was > 3000 nM.

On to `Cn1nccc1Nc1nccc(-c2ccn(C(CO)c3ccc(Cl)c(F)c3)c(=O)c2)n1` (stereo not given), for which the viability, T/C (compound 0.0316 µM) was 107% [middle of 4 runs]; the viability, T/C (compound 0.1 µM) is 91.8% [middle of 4 runs]; the viability, T/C (compound 0.316 µM) was 110% [middle of 4 runs]; the viability, T/C (compound 1 µM) was 94.6% [middle of 4 runs]; the viability, T/C (compound 3.16 µM) was 106% [middle of 4 runs]; the viability, T/C (compound 10 µM) was 96.2% [middle of 4 runs]. Besides, the IC50 (curve of compound) is > 10000 nM.

Regarding `Cn1ncnc1[C@H]1c2n[nH]c(=O)c3cc(F)cc(c23)N[C@@H]1c1ccc(F)cc1`, the viability, T/C runs as follows: (compound 0.000316 µM) 101% [middle of 4 runs]; (compound 0.001 µM) 100% [middle of 4 runs]; (compound 0.00316 µM) 98.7% [middle of 4 runs]; (compound 0.01 µM) 92.5% [middle of 4 runs]; (compound 0.0316 µM) 96.4% [middle of 4 runs]; (compound 0.1 µM) 92.1% [middle of 4 runs]. In addition, the IC50 (curve of compound) was > 100 nM.

One may read the viability, T/C as the ratio of treated to control. One may read the IC50 as the concentration needed to halve the response being measured.
